Experimental data as given in publication PMC5215806 (Chemical Science, 2016).

Legend:
FzmM (His6-FzmM) = assay: steady-state kinetics of N-hydroxylation; assay type: biochemical, Streptomyces sp. NRRL S-149; conditions: read-out: Km (apparent); co-substrates O2, NADPH, FAD
FzmQ (His6-FzmQ) = assay: spectrophotometric assay of CoA formation; assay type: biochemical, Streptomyces sp. NRRL S-149; conditions: read-out: Km (apparent); co-substrate acetyl-CoA

Compound	Km (FzmM (His6-FzmM)) [µM]	Km (FzmQ (His6-FzmQ)) [µM]
N[C@@H](CC(=O)O)C(=O)O [L-Asp]	790 ± 70	–
NNC(CC(=O)O)C(=O)O (centres unmarked) [hydrazinosuccinate]	–	4.2 ± 0.8
